Experimental data: patent US20260103474A1, “NOVEL COMPOUNDS FOR THE DIAGNOSIS OF TDP-43 PROTEINOPATHIES” (AC IMMUNE SA, priority 2022, published 2026)

Legend:
[1] = molecular target: TDP-43 aggregates (Homo sapiens, UniProt Q13148); test: Classical autoradiography in brain sections from patients with FTD; type: binding; conditions: for Displacement on FTLD-TDP type A and B compared to non-demented control / Specific binding in FTLD-TDP type A compared to control: classical autoradiography; for cARG displacement on FTLD-TDP Type A case / cARG displacement on FTLD-TDP Type B case / cARG displacement on non-demented control: total binding divided by non-specific binding, grey matter, self-block with cold compound; for Specific binding in FTLD-TDP type A compared to control: one-way ANOVA with Tukey's correction
Sequence of TDP-43 aggregates (Q13148 whole entry): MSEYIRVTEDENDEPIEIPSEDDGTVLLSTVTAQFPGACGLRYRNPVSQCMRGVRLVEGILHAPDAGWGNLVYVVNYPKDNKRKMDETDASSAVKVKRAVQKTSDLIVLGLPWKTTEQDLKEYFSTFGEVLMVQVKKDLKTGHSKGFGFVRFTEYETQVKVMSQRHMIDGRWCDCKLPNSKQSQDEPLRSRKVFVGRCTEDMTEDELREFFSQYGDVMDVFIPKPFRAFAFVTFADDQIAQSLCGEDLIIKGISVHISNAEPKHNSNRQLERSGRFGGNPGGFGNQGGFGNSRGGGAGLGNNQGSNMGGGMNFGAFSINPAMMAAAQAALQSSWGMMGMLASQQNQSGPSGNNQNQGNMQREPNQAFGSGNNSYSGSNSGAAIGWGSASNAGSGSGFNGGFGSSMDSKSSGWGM
Protocol: All tissues were collected from donors for or from whom a written informed consent for a brain autopsy and the use of the material and clinical information for research purposes had been obtained by the respective brain banks. All samples were anonymized and coded. Frozen brain tissue blocks with confirmed TDP-43 pathology upon autopsy were processed using a cryotome to generate sections of 10 μm in thickness and mounted on glass slides. Sections were kept at −80° C. until use.
Brain sections were fixed for 15 minutes at 4° C. with 4% formaldehyde on ice and washed three times for eight minutes with 1×PBS at RT. Sections were blocked in assay buffer for 30 minutes (50 mM Tris-HCl, 0.9% NaCl+0.1% BSA). Cold test compound (Compound 1, Compound 8 or Compound 17) was diluted in assay buffer to 4 μM and applied on half of the sections for 40 minutes at RT to determine non-specific binding. The remaining half of the sections were only incubated with assay buffer (total binding). Following this incubation, an equal volume of the corresponding tritiated compound (i.e. [^3H]-Compound 1, [^3H]-Compound 8 or [^3H]-Compound 17, respectively), diluted to 20 nM (for [^3H]-Compound 1 and [^3H]-Compound 8) or 10 nM ([^3H]-Compound 17) or increasing concentration from 0.1 to 200 nM (for [^3H]-Compound 1 and [^3H]-Compound 17), was added on sections and incubated for 2 hours at RT and then washed as follows: once in ice-cold 50 mM Tris-HCl pH 7.4 buffer for one minute, twice in ice-cold PBS for one minute, once in ice-cold 50 mM Tris-HCl pH 7.4 buffer for one minute and finally rinsed briefly in ice-cold distilled water.
Sections were subsequently dried under a stream of air and mounted with a copper-based adhesive strip. Bound radioactivity was quantified by exposing the slides in a real-time autoradiography system (Beaquant™ AI4R) for 2 hours, with measurement settings configured for tritium. Beavacq software (AI4R) was used to acquire the image which was subsequently quantified using Beamage image analysis software (AI4R). Specific binding (non-specific binding subtracted from total) and displacement (total binding divided by non-specific) were calculated. Bar graphs were generated using GraphPad Prism. For Kd determination on brain sections, the specific binding data were fitted with a non-linear regression analysis using a one-site specific binding model in GraphPad Prism.

[2] = test system: AD brain-derived Tau PHF aggregates; test: Micro-radiobinding direct binding on AD brain-derived Tau PHF; set-up: species or system human; conditions: tritiated compound 0.6 to 200 nM
Protocol: The enrichment procedure was modified from Jicha et al, 1997 and Rostagno and Ghiso, 2009. Briefly, around 15 g of the AD human brain were thawed on ice and homogenized with homogenization buffer (3 ml per gram of tissue) (0.75 M NaCl in RAB buffer (100 mM 2-(N-morpholino)ethanesulfonic acid (MES), 1 mM EGTA, 0.5 mM MgSO4, 2 mM DTT, pH 6.8) supplemented with protease inhibitors (Complete; Roche 693124001)) in a glass Dounce homogenizer. […]
PD brain-derived a-synuclein aggregates and AD brain-derived Tau PHF aggregates were spotted onto microarray slides. […] Quantification of signal was performed by using the image analysis software Beamage (ai4R). Non-specific signal was determined with an excess of non-radiolabelled compound (2 μM) and specific binding was calculated by subtracting the non-specific signal from the total signal. Competition was calculated as percentage, where 0% was defined as the specific binding in the presence of vehicle and 100% as the values obtained in the presence of excess of the non-radiolabelled a-syn reference compound. Ki values were calculated in GraphPad Prism7 by applying a nonlinear regression curve fit using a one site, specific binding model. […]

SMILES | Displacement on FTLD-TDP type A and B compared to non-demented control [1] | cARG displacement on FTLD-TDP Type A case [1] | cARG displacement on FTLD-TDP Type B case [1] | cARG displacement on non-demented control [1] | Specific binding in FTLD-TDP type A compared to control [1] | Direct binding in AD brain-derived Tau PHF aggregates [2]
O=C1c2sc(-c3ccc(N4CCC(CO)CC4)nc3F)nc2CCN1c1cccnc1 [Compound 17, 2-(2-fluoro-6-(4-(hydroxymethyl)piperidin-1-yl)pyridin-3-yl)-5-(pyridin-3-yl)-6,7-dihydrothiazolo[5,4-c]pyridin-4(5H)-one] | increased displacement | 2.9 | 2.6 | 1.7 |  | 
[3H]c1cncc(N2CCc3nc(-c4cc([3H])c(N5CC[C@@H](F)C5)nc4F)sc3C2=O)c1 [[^3H]-Compound 1, tritiated 2-[2-fluoro-6-[(3R)-3-fluoropyrrolidin-1-yl]-3-pyridyl]-5-(3-pyridyl)-6,7-dihydrothiazolo[5,4-c]pyridin-4-one] |  |  |  |  | significantly higher specific binding | No significant binding
[3H]C([3H])(O)C1CCN(c2ccc(-c3nc4c(s3)C(=O)N(c3cccnc3)CC4)c(F)n2)CC1 [[^3H]-Compound 17, 2-(2-fluoro-6-(4-(hydroxymethyl-t2)piperidin-1-yl)pyridin-3-yl)-5-(pyridin-3-yl)-6,7-dihydrothiazolo[5,4-c]pyridin-4(5H)-one] |  |  |  |  | significantly higher specific binding | No significant binding
O=C1c2sc(-c3ccc(N4CC[C@@H](F)C4)nc3F)nc2CCN1c1cccnc1 [Compound 1, 2-[2-fluoro-6-[(3R)-3-fluoropyrrolidin-1-yl]-3-pyridyl]-5-(3-pyridyl)-6,7-dihydrothiazolo[5,4-c]pyridin-4-one] | increased displacement | 3.3 | 3.2 | 1.9 |  | 
